Laboratory results from patent US11518759B1, “Protacs based on VHL ligand targeting coronavirus 3CL protease and preparation method and application thereof” (SHAANXI PANLONG PHARMACEUTICAL CO., LTD., priority 2022, dated 2022).
Read-outs that look alike come from different tables or passages of the source.

Key:
SARS-CoV-2 3CL^pro [1] = target: T1, SARS-CoV-2 3CL^pro (Severe acute respiratory syndrome coronavirus 2 (2019-nCoV) (SARS-CoV-2), UniProt P0DTD1); assay: biochemical; conditions: FRET
SARS-CoV-2 3CL^pro [2] = target: T1, SARS-CoV-2 3CL^pro; format: cell-based; conditions: 24 h, Western Blot

Cc1ncsc1-c1ccc(CNC(=O)[C@@H]2C[C@@H](O)CN2C(=O)[C@@H](NC(=O)COCCOCCn2cc(Cn3c(=O)[nH]/c(=N\c4cc5cn(C)nc5cc4Cl)n(Cc4cc(F)c(F)cc4F)c3=O)nn2)C(C)(C)C)cc1 [Compound 8]
< 100 nM: IC50 (SARS-CoV-2 3CL^pro [1]; SARS-CoV-2 3CLpro 0.5 μM, substrate 20 μM, class symbols, read-out: IC50) | IC50 (SARS-CoV-2 3CL^pro [1]; bound stated, read-out: IC50 values on 3CL^pro) | DC50 (SARS-CoV-2 3CL^pro [2]; HEK293E cells transfected with 3CLpro plasmid, class symbols) | DC50 (SARS-CoV-2 3CL^pro [2]; read-out: DC50 values for 3CL^pro, HEK293E cells, bound stated)
